Results from US9109045B2, “Mass producing growth factor using adipose derived adult stem cells” (PROSTEMICS CO., LTD., priority 2006, dated 2015).
Values joined by “and” are separate entries in the source; they are usually repeats but may differ in a detail not shown here. Equal entries are not always repeated. Where two headings read alike, the source gives them in different places.

Key:
[1] = tested on: keratinocytes; assay: Defensive effect against exposure of keratinocytes to UV light (cell viability); type: cell-based; settings: UV light 40 W double lamp 8 minutes, viability after 24 hours, 2.5 cc medium in 5 cc KGM or 2 uM retinol
Method: The defensive effect of growth factors secreted from adipose-derived stem cells against the exposure of keratinocytes UV light was tested in the following manner. Keratinocytes were dispensed into a 6-well plate at a suitable cell concentration in KGM (karatinocyte growth medium; Clonetics.) and incubated in a 5% carbon dioxide incubator at 37° C. To the medium, 2.5 cc of 100% ADSC 3-passage 3-day cultured medium was added to adjust the KGM to 5 cc. Also, 2 uM retinol was added to 5 cc of KGM. Also, as a negative control group, 5 cc of KGM alone was administered to keratinocytes. Each of the test samples was stabilized for 4 hours, such that the raw materials were sufficiently dispersed. After that, each of the test samples was irradiated with UV light using a 40 W double lamp for 8 minutes in an aseptic laboratory. After 24 hours, the UV defense function of the test sample was measured by determining the viability of the cells in comparison with the negative control group, which was untreated with the culture medium or retinol and irradiated with UV light for 8 minutes.

[2] = tested on: adipose-derived stem cells; assay: Growth factor secretion (ELISA) of adipose-derived stem cells under chemical stimulation with vitamins; type: cell-based, human; settings: for optimal concentration for synthesis of growth factors: added to serum-free culture medium of adipose-derived stem cells; for TGF β-1 expression / protein levels increased / VEGF expression / protein levels increased / bFGF expression / protein levels increased: chemical stimulation only, vitamin(s) at optimal concentration in serum-free medium, more than 48 hours, compared with control group
Method: In order to examine whether chemical stimulation using a vitamin promotes the synthesis and secretion of growth factors, in the present invention, adipose-derived stem cells were cultured in vitro using serum media and then using serum-free media as described above.
Preferably, after vitamin is added to the culture medium, the culture is incubated for more than 48 hours. When a mixture of vitamins is used, the optimal concentrations of vitamins are the same as above.
Specifically, 1 ml of the culture medium obtained by culturing adipose-derived stem cells to passage 3 in the conditions of Example 1-2 was centrifuged at 1200 g for 5 minutes, and then filtered through a […] filter to remove cell residue. […] Then, the concentration of each of growth factors VEGF, bFGF and TGF β-1 secreted in the culture medium was measured using a sandwich ELISA kit (Quantikine Human FGF basic Immunoassay, R&D systems).
To examine the concentrations of optimally diluted growth factors, the culture medium was serially diluted at the same concentration ratio with a calibration dilution in the kit, the concentration at the absorbance included in the range of the standard curve was determined, and the values included in the range of the standard curve were plotted as data. […] of each growth factor-containing culture media and standard solutions of growth factors was placed in each well coated with an antibody to each of the growth factors (Quantikine Human FGF basic Immunoassay, R&D systems) and was cultured at room temperature for 2 hours. After completion of the antigen-antibody binding reaction, each well was washed four times with wash buffer, and […] of a solution (Quantikine Human FGF basic Immunoassay, R&D systems), containing a secondary antibody to each of the growth factors, was placed in each well, followed by culture at room temperature for 2 hours. After completion of the second antibody binding reaction, each well was washed four times with wash buffer, […] of a color-developing reagent (tetramethylbenzidine, R&D systems) was added to each well, and then the absorbance of the medium was measured at 450 nm with an ELISA reader.
Adipose tissue-derived stem cells were cultured to passage 3 as described in Example (1-2), and when the cultured cells reached a confluence of 80%, the cells were collected with trypsin/EDTA. Then, the cells were accurately dispensed into a 6-well plate at a density of 25,000 cells/well. […]
Cells were cultured in this medium.
The cells were cultured in the above medium in a 5% carbon dioxide incubator at 37° C. for more than 48 hours, and then 200 μl of the culture medium supernatant was centrifuged at 3,000 rpm and filtered through 0.22-μm filter paper. Then, the concentrations of bFGF, VEGF and TGF β-1 in the filtrate were measured by the enzyme-linked immunosorbent assay (ELISA) of Example 2.
As a control group, a normal medium, was used, which was not subjected to physical stimulation or chemical stimulation. The increase in growth factors was compared between the control group and the culture medium subjected to physical stimulation and chemical stimulation.
In a culture process, cells were added to a serum-free medium prepared by adding a Ham's F-12 nutrient mixture to DMEM not containing a pH indicator such as phenol red, at a ratio of 1:1, and adding thereto 2 mM L-glutamine, 1 mM sodium pyruvate and 0.17% sodium bicarbonate. Then, the cells were cultured in a 5% carbon dioxide incubator at 37° C. for more than 48 hours. Then, 200 μl of the culture medium supernatant was centrifuged at 3,000 rpm, and then filtered through 0.22-μm filter paper. Then, the concentrations of bFGF, VEGF and TGF β-1 were measured by the enzyme-linked immunosorbent assay (ELISA) of Example 2.
The case where physical stimulation is used in combination with chemical stimulation will now be described.
For VEGF, a medium was irradiated with UV light and then subjected to scratch stimulation. […]

[3] = tested on: adipose-derived stem cells
[4] = tested on: fibroblast cells; assay: Cell proliferation potential: stem cell culture medium vs recombinant growth factor-containing media; type: cell-based, human; settings: 5000 cells/well seeded; rFGF 50 ng, rVEGF 500 ng in normal media; stem cell medium at 100%
Method: Stem cells isolated from adipose tissue were cultured to passage-3 as described in Example (1-2), and then 10^6 cells of the stem cells were seeded into a T175 flask (area: 175 cm^2; volume: 500 ml) and cultured for 3 days. The culture medium was collected, and added at a concentration of 100% to a 6-well plate in which passage-4 fibroblast cells from the skin tissue of a child were dispensed at a density of 5000 cells/well. For the control group, a medium containing the same concentrations of recombinant growth factors VEGF and bFGF (Santa Cruz.) expressed in E. coli was used. Cell proliferation potential was compared between the adipose-derived stem cell culture medium and the recombinant growth factor-containing culture medium using a cell viability measurement kit.

CC1=C(/C=C/C(C)=C/C=C/C(C)=C/CO)C(C)(C)CCC1 [Retinol]
Defensive effect [1]: 54% | Defensive effect ([1]; listed as retinol): 54%

vitamin A
optimal concentration for synthesis of growth factors [2]: 2 to 5 µM and 2 to 10 µM | TGF β-1 expression / protein levels increased [2]: 1.20 times | VEGF expression / protein levels increased [2]: 1.59 times | bFGF expression / protein levels increased [2]: 1.62 times | cytotoxicity by MTT assay [3]: no cytotoxicity occurred

Cc1cc2nc3c(=O)[nH]c(=O)nc-3n(C[C@H](O)[C@H](O)[C@H](O)CO)c2cc1C [vitamin B, riboflavin]
optimal concentration for synthesis of growth factors [2]: 50 to 100 µM | TGF β-1 expression / protein levels increased [2]: 1.56 times | VEGF expression / protein levels increased [2]: 1.68 times and 1.56 times | bFGF expression / protein levels increased [2]: 1.33 times

vitamin D
optimal concentration for synthesis of growth factors [2]: 5 to 10 µM | TGF β-1 expression / protein levels increased [2]: 1.16 times | VEGF expression / protein levels increased [2]: 1.30 times | bFGF expression / protein levels increased [2]: 2.80 times

rFGF: recombinant growth factor bFGF (Santa Cruz) expressed in E. coli
cell proliferation potential, Cells [4]: 8215.3 Cells

O=C1O[C@H]([C@@H](O)CO)C(O)=C1O [vitamin C]
optimal concentration for synthesis of growth factors [2]: 10 to 100 µM | TGF β-1 expression / protein levels increased [2]: 1.20 times | VEGF expression / protein levels increased [2]: 1.68 times | bFGF expression / protein levels increased [2]: 2.33 times | cytotoxicity by MTT assay ([3]; at the optimal concentrations): no cytotoxicity occurred
